Test results reported in publication PMC5218480 (PLoS ONE, 2017).

Tested on: MV-4-11 cells
Assay: Gene expression microarray analysis (Affymetrix PrimeView) and GSEA
Type: cell-based, human
Parameters: RFU PODN (11730768_x_at) / Fold change /veh PODN (11730768_x_at) / RFU LINC00158 (11744669_a_at) / Fold change /veh LINC00158 (11744669_a_at) / RFU DUSP10 (11751237_a_at) / Fold change /veh DUSP10 (11751237_a_at) / RFU ID3 (11757404_x_at) / Fold change /veh ID3 (11757404_x_at) / RFU PLEKHG5 (11737974_s_at) / Fold change /veh PLEKHG5 (11737974_s_at) / RFU LRRC4B (11730491_at) / Fold change /veh LRRC4B (11730491_at) / RFU GIMAP4 (11747438_a_at) / Fold change /veh GIMAP4 (11747438_a_at) / RFU KRT8 (11758183_x_at) / Fold change /veh KRT8 (11758183_x_at) / RFU CNN1 (11734310_a_at) / Fold change /veh CNN1 (11734310_a_at) / RFU VPS37D (11726825_at) / Fold change /veh VPS37D (11726825_at) / RFU C10orf10 (11716522_x_at) / Fold change /veh C10orf10 (11716522_x_at) / RFU KIR2DL2 /// KIR2DL4 /// KIR2DL5A /// KIR2DL5B /// KIR2DS1 /// KIR2DS2 /// KIR2DS3 /// KIR2DS4 /// KIR3DL3 /// KIR3DL3 /// KIR3DS1 (11738374_at) / Fold change /veh KIR2DL2 /// KIR2DL4 /// KIR2DL5A /// KIR2DL5B /// KIR2DS1 /// KIR2DS2 /// KIR2DS3 /// KIR2DS4 /// KIR3DL3 /// KIR3DL3 /// KIR3DS1 (11738374_at) / RFU C1QL1 (11718748_at) / Fold change /veh C1QL1 (11718748_at) / RFU TMPRSS4 (11747572_a_at) / Fold change /veh TMPRSS4 (11747572_a_at) / RFU HAMP (11756126_x_at) / Fold change /veh HAMP (11756126_x_at) / RFU RNFT2 (11725882_a_at) / Fold change /veh RNFT2 (11725882_a_at) / RFU NR4A2 (11747474_a_at) / Fold change /veh NR4A2 (11747474_a_at) / RFU ABCC12 (11746883_a_at) / Fold change /veh ABCC12 (11746883_a_at) / RFU TMEM136 (11760407_x_at) / Fold change /veh TMEM136 (11760407_x_at) / RFU CLDN22 /// WWC2 (11732394_at) / Fold change /veh CLDN22 /// WWC2 (11732394_at) / RFU HLA-DPB1 (11760878_x_at) / Fold change /veh HLA-DPB1 (11760878_x_at) / RFU SPINT1 (11716480_a_at) / Fold change /veh SPINT1 (11716480_a_at) / RFU GAP43 (11754022_s_at) / Fold change /veh GAP43 (11754022_s_at) / RFU A4GNT (11735810_at) / Fold change /veh A4GNT (11735810_at) / RFU PRB3 (11715151_x_at) / Fold change /veh PRB3 (11715151_x_at) / RFU TUBB4B (11761932_at) / Fold change /veh TUBB4B (11761932_at) / RFU CAPN14 (11732068_a_at) / Fold change /veh CAPN14 (11732068_a_at) / RFU TMCC2 (11721928_a_at) / Fold change /veh TMCC2 (11721928_a_at) / RFU IRGQ (11745062_a_at) / Fold change /veh IRGQ (11745062_a_at) / RFU FAM174B (11720279_a_at) / Fold change /veh FAM174B (11720279_a_at) / RFU TMPRSS4 (11748680_a_at) / Fold change /veh TMPRSS4 (11748680_a_at) / RFU FAM212B (11763350_a_at) / Fold change /veh FAM212B (11763350_a_at) / RFU PLEKHG5 (11743358_a_at) / Fold change /veh PLEKHG5 (11743358_a_at) / RFU ZSCAN30 (11745921_a_at) / Fold change /veh ZSCAN30 (11745921_a_at) / RFU CMKLR1 (11741424_a_at) / Fold change /veh CMKLR1 (11741424_a_at) / RFU LOC101060620 /// MAPK8IP1 (11723275_at) / Fold change /veh LOC101060620 /// MAPK8IP1 (11723275_at) / RFU SPTSSB (11747773_x_at) / Fold change /veh SPTSSB (11747773_x_at) / RFU PRSS12 (11739890_at) / Fold change /veh PRSS12 (11739890_at) / RFU BIN1 (11741810_x_at) / Fold change /veh BIN1 (11741810_x_at) / RFU WNT11 (11732464_a_at) / Fold change /veh WNT11 (11732464_a_at) / RFU C10orf10 (11716521_a_at) / Fold change /veh C10orf10 (11716521_a_at) / RFU C5orf56 (11738089_at) / Fold change /veh C5orf56 (11738089_at) / RFU CYB561 (11721691_x_at) / Fold change /veh CYB561 (11721691_x_at) / RFU ANKRD19P (11752326_a_at) / Fold change /veh ANKRD19P (11752326_a_at) / RFU OR2T12 /// OR2T33 /// OR2T8 (11738714_s_at) / Fold change /veh OR2T12 /// OR2T33 /// OR2T8 (11738714_s_at) / RFU VCAN (11748164_a_at) / Fold change /veh VCAN (11748164_a_at) / RFU JSRP1 (11732532_at) / Fold change /veh JSRP1 (11732532_at) / RFU KRTAP10-11 (11738290_x_at) / Fold change /veh KRTAP10-11 (11738290_x_at) / RFU MYO3A (11730013_a_at) / Fold change /veh MYO3A (11730013_a_at) / RFU EBF3 (11725865_a_at) / Fold change /veh EBF3 (11725865_a_at) / RFU CAMK2N1 (11719241_x_at) / Fold change /veh CAMK2N1 (11719241_x_at) / RFU C5orf56 (11738088_a_at) / Fold change /veh C5orf56 (11738088_a_at) / RFU OLFML3 (11715873_a_at) / Fold change /veh OLFML3 (11715873_a_at) / RFU LOC100653217 /// NTM (11731650_a_at) / Fold change /veh LOC100653217 /// NTM (11731650_a_at) / RFU MAPK11 (11762145_a_at) / Fold change /veh MAPK11 (11762145_a_at) / RFU FIZ1 (11724087_x_at) / Fold change /veh FIZ1 (11724087_x_at) / RFU OASL (11726364_x_at) / Fold change /veh OASL (11726364_x_at) / RFU SOX15 (11748057_x_at) / Fold change /veh SOX15 (11748057_x_at) / RFU CD79A (11719716_a_at) / Fold change /veh CD79A (11719716_a_at) / RFU HIST1H1D (11736915_at) / Fold change /veh HIST1H1D (11736915_at) / RFU CASKIN2 (11723855_a_at) / Fold change /veh CASKIN2 (11723855_a_at) / RFU LOC730098 (11760151_x_at) / Fold change /veh LOC730098 (11760151_x_at) / RFU OR4N2 (11742367_at) / Fold change /veh OR4N2 (11742367_at) / RFU PRRT2 (11749266_a_at) / Fold change /veh PRRT2 (11749266_a_at) / RFU SNX32 (11753110_a_at) / Fold change /veh SNX32 (11753110_a_at) / RFU CDHR5 (11726645_a_at) / Fold change /veh CDHR5 (11726645_a_at) / RFU RCAN1 (11760418_a_at) / Fold change /veh RCAN1 (11760418_a_at) / RFU FAM167A (11723789_a_at) / Fold change /veh FAM167A (11723789_a_at) / RFU FAM26E (11764081_at) / Fold change /veh FAM26E (11764081_at) / RFU ISYNA1 (11749810_s_at) / Fold change /veh ISYNA1 (11749810_s_at) / RFU ACY1 (11761880_at) / Fold change /veh ACY1 (11761880_at) / RFU 11764098_at / Fold change /veh 11764098_at / RFU SAMD14 (11745864_x_at) / Fold change /veh SAMD14 (11745864_x_at) / RFU NPB (11741838_a_at) / Fold change /veh NPB (11741838_a_at) / RFU TMPRSS6 (11731388_a_at) / Fold change /veh TMPRSS6 (11731388_a_at) / RFU KRTAP10-2 (11738614_at) / Fold change /veh KRTAP10-2 (11738614_at) / RFU ARHGAP8 /// PRR5-ARHGAP8 (11727945_x_at) / Fold change /veh ARHGAP8 /// PRR5-ARHGAP8 (11727945_x_at) / RFU KRTAP5-7 /// NADSYN1 (11734609_at) / Fold change /veh KRTAP5-7 /// NADSYN1 (11734609_at) / RFU RASL12 (11751679_a_at) / Fold change /veh RASL12 (11751679_a_at) / RFU CDKN2B (11736163_a_at) / Fold change /veh CDKN2B (11736163_a_at) / RFU PRF1 (11729649_at) / Fold change /veh PRF1 (11729649_at) / RFU, ZNF638 /// ZNF638-IT1 / Fold change vs veh, ZNF638 /// ZNF638-IT1 / RFU, PANK3 / Fold change vs veh, PANK3 / RFU, SH3YL1 / Fold change vs veh, SH3YL1 / RFU, ZEB2 / Fold change vs veh, ZEB2 / RFU, NRIP1 / Fold change vs veh, NRIP1 / RFU, PTTG1IP / Fold change vs veh, PTTG1IP / RFU, CAPN2 / Fold change vs veh, CAPN2 / RFU, MED14 / Fold change vs veh, MED14 / RFU, SNORA58 / Fold change vs veh, SNORA58 / RFU, C1orf63 / Fold change vs veh, C1orf63 / RFU, LRRFIP1 / Fold change vs veh, LRRFIP1 / RFU, NDUFAF7 / Fold change vs veh, NDUFAF7 / RFU, SLC12A2 / Fold change vs veh, SLC12A2 / RFU, IBTK / Fold change vs veh, IBTK / RFU, ESF1 / Fold change vs veh, ESF1 / Fold change vs veh, TMEM50B / RFU, TAOK1 / Fold change vs veh, TAOK1 / RFU, ACBD3 / Fold change vs veh, ACBD3 / RFU, TMA16 / Fold change vs veh, TMA16 / RFU, RWDD3 / Fold change vs veh, RWDD3 / RFU, BCAT1 / Fold change vs veh, BCAT1 / RFU, EDEM3 / Fold change vs veh, EDEM3 / RFU, TMEM33 / Fold change vs veh, TMEM33 / RFU, WDR75 / Fold change vs veh, WDR75 / RFU, AHCTF1 / Fold change vs veh, AHCTF1 / RFU, TFRC / Fold change vs veh, TFRC / RFU, ZDHHC17 / Fold change vs veh, ZDHHC17 / RFU, NOM1 / Fold change vs veh, NOM1 / RFU, ARL8B / Fold change vs veh, ARL8B / RFU, ZBTB11 / Fold change vs veh, ZBTB11 / RFU, TAMM41 / Fold change vs veh, TAMM41 / RFU, KIAA1704 /// LOC100996395 / Fold change vs veh, KIAA1704 /// LOC100996395 / RFU, ING1 / Fold change vs veh, ING1 / RFU, TRMT61B / Fold change vs veh, TRMT61B / RFU, FUBP3 / Fold change vs veh, FUBP3 / RFU, TP53 / Fold change vs veh, TP53 / RFU, TNKS2 / Fold change vs veh, TNKS2 / RFU, ZFP14 / Fold change vs veh, ZFP14 / RFU, ACTR2 / Fold change vs veh, ACTR2 / RFU, PPP3R1 / Fold change vs veh, PPP3R1 / RFU, PIK3R1 / Fold change vs veh, PIK3R1 / RFU, HNRNPA1 / Fold change vs veh, HNRNPA1 / RFU, RNF170 / Fold change vs veh, RNF170 / RFU, ZNF28 / Fold change vs veh, ZNF28 / RFU, RNGTT / Fold change vs veh, RNGTT / RFU, OGT / Fold change vs veh, OGT / RFU, BRD1 / Fold change vs veh, BRD1 / RFU, MARS / Fold change vs veh, MARS / RFU, ZNF655 / Fold change vs veh, ZNF655 / RFU, FAHD1 / Fold change vs veh, FAHD1 / RFU, BDP1 / Fold change vs veh, BDP1 / RFU, LRRCC1 / Fold change vs veh, LRRCC1 / RFU, ARID1A / Fold change vs veh, ARID1A / RFU, ZNF146 / Fold change vs veh, ZNF146 / RFU, ZNF330 / Fold change vs veh, ZNF330 / RFU, GPN3 / Fold change vs veh, GPN3 / RFU, C9orf123 / Fold change vs veh, C9orf123 / RFU, N4BP2L2 / Fold change vs veh, N4BP2L2 / RFU, ARFIP1 / Fold change vs veh, ARFIP1 / RFU, FAM179B / Fold change vs veh, FAM179B / RFU, BCL10 / Fold change vs veh, BCL10 / RFU, UHRF1BP1L / Fold change vs veh, UHRF1BP1L / RFU, BET1 / Fold change vs veh, BET1 / RFU, CNOT2 / Fold change vs veh, CNOT2 / RFU, ZNF268 / Fold change vs veh, ZNF268 / Fold change vs veh, ZNF507 / RFU, DGCR2 / Fold change vs veh, DGCR2 / RFU, WDSUB1 / Fold change vs veh, WDSUB1 / Fold change vs veh, HSP90B1 /// MIR3652 / RFU, ADSS / Fold change vs veh, ADSS / RFU, GK / Fold change vs veh, GK / RFU, ZNF148 / Fold change vs veh, ZNF148 / RFU, TAF9 / Fold change vs veh, TAF9 / RFU, SLC1A5 / Fold change vs veh, SLC1A5 / RFU, SLMO2 / Fold change vs veh, SLMO2 / RFU, ABCC4 / Fold change vs veh, ABCC4 / RFU, LOC101060439 /// RAP1B / Fold change vs veh, LOC101060439 /// RAP1B / RFU, RFX7 / Fold change vs veh, RFX7 / RFU, GTPBP10 / Fold change vs veh, GTPBP10 / RFU, CNEP1R1 / Fold change vs veh, CNEP1R1 / RFU, BIVM-ERCC5 /// ERCC5 / Fold change vs veh, BIVM-ERCC5 /// ERCC5 / RFU, ILF3 / Fold change vs veh, ILF3 / RFU 11762660_at / Fold change /veh 11762660_at / RFU VCAN (11757783_s_at) / Fold change /veh VCAN (11757783_s_at) / RFU DDX43 (11728927_at) / Fold change /veh DDX43 (11728927_at) / RFU KRT8 (11758188_x_at) / Fold change /veh KRT8 (11758188_x_at) / RFU NKD1 (11759106_at) / Fold change /veh NKD1 (11759106_at) / RFU SRD5A1 (11742802_a_at) / Fold change /veh SRD5A1 (11742802_a_at) / RFU TPSAB1 /// TPSB2 (11721975_s_at) / Fold change /veh TPSAB1 /// TPSB2 (11721975_s_at) / RFU GSTM3 (11746129_a_at) / Fold change /veh GSTM3 (11746129_a_at) / RFU IL23R (11737362_x_at) / Fold change /veh IL23R (11737362_x_at) / RFU TMEM51 (11727254_a_at) / Fold change /veh TMEM51 (11727254_a_at) / RFU PIWIL2 (11732686_x_at) / Fold change /veh PIWIL2 (11732686_x_at) / RFU ORM1 (11744905_x_at) / Fold change /veh ORM1 (11744905_x_at) / RFU CCDC152 (11743942_at) / Fold change /veh CCDC152 (11743942_at) / RFU ECM1 (11717891_a_at) / Fold change /veh ECM1 (11717891_a_at) / RFU IL23R (11748794_a_at) / Fold change /veh IL23R (11748794_a_at) / RFU TNFAIP8L3 (11732012_x_at) / Fold change /veh TNFAIP8L3 (11732012_x_at) / RFU MBOAT4 (11741988_at) / Fold change /veh MBOAT4 (11741988_at) / RFU 11764193_at / Fold change /veh 11764193_at / RFU TMEM53 (11763286_at) / Fold change /veh TMEM53 (11763286_at) / RFU MAGEB2 (11727129_at) / Fold change /veh MAGEB2 (11727129_at) / RFU TMEM200A (11744735_a_at) / Fold change /veh TMEM200A (11744735_a_at) / RFU CCDC152 (11751479_a_at) / Fold change /veh CCDC152 (11751479_a_at) / RFU FAM211A (11726209_a_at) / Fold change /veh FAM211A (11726209_a_at) / RFU RGS16 (11746705_a_at) / Fold change /veh RGS16 (11746705_a_at) / RFU VCAN (11755009_s_at) / Fold change /veh VCAN (11755009_s_at) / RFU RHOB (11743442_s_at) / Fold change /veh RHOB (11743442_s_at) / RFU RGS16 (11720943_a_at) / Fold change /veh RGS16 (11720943_a_at) / RFU RGS16 (11720944_at) / Fold change /veh RGS16 (11720944_at) / RFU, VPS4B / Fold change vs veh, VPS4B / RFU, CREB1 / Fold change vs veh, CREB1 / RFU, DNAJC13 / Fold change vs veh, DNAJC13 / RFU, GNAQ / Fold change vs veh, GNAQ / RFU, CDK5R1 / Fold change vs veh, CDK5R1 / RFU, ZRANB3 / Fold change vs veh, ZRANB3 / RFU, CUL4A / Fold change vs veh, CUL4A / RFU, CCNY / Fold change vs veh, CCNY / RFU, UFL1 / Fold change vs veh, UFL1 / RFU, COG3 / Fold change vs veh, COG3 / RFU, DIAPH2 / Fold change vs veh, DIAPH2 / RFU, SKA2 / Fold change vs veh, SKA2 / RFU, AFF3 / Fold change vs veh, AFF3 / RFU, LMF1 / Fold change vs veh, LMF1 / RFU, IPO11 / Fold change vs veh, IPO11 / RFU, DFFB / Fold change vs veh, DFFB / RFU, FOXP1 / Fold change vs veh, FOXP1 / RFU, CARD8 / Fold change vs veh, CARD8 / RFU, STRN3 / Fold change vs veh, STRN3 / RFU, ADK / Fold change vs veh, ADK / RFU, RASSF2 / Fold change vs veh, RASSF2 / RFU, WIPF1 / Fold change vs veh, WIPF1 / RFU, LARP1B / Fold change vs veh, LARP1B / RFU, RASA1 / Fold change vs veh, RASA1 / RFU, RB1 / Fold change vs veh, RB1 / RFU, PPFIA1 / Fold change vs veh, PPFIA1 / RFU, MAT2A / Fold change vs veh, MAT2A / RFU, CCT5 / Fold change vs veh, CCT5 / RFU, WDR92 / Fold change vs veh, WDR92 / RFU, CUX1 / Fold change vs veh, CUX1 / RFU, TTC7A / Fold change vs veh, TTC7A / RFU, TMEM135 / Fold change vs veh, TMEM135 / RFU, DEPTOR / Fold change vs veh, DEPTOR / RFU, CPM / Fold change vs veh, CPM / RFU, DNAJB6 / Fold change vs veh, DNAJB6 / RFU, CACNA2D3 / Fold change vs veh, CACNA2D3 / RFU, DTX4 / Fold change vs veh, DTX4 / RFU, TFCP2 / Fold change vs veh, TFCP2 / RFU, GMCL1 /// GMCL1P1 / Fold change vs veh, GMCL1 /// GMCL1P1 / RFU, AEBP2 / Fold change vs veh, AEBP2 / RFU, SNHG1 /// SNORD22 /// SNORD25 /// SNORD26 /// SNORD27 /// SNORD28 /// SNORD29 /// SNORD31 / Fold change vs veh, SNHG1 /// SNORD22 /// SNORD25 /// SNORD26 /// SNORD27 /// SNORD28 /// SNORD29 /// SNORD31 / Fold change (Aza/veh), C12orf56 (ProbeSet 11735607_a_at) / Fold change (ACY-1035/veh), C12orf56 (ProbeSet 11735607_a_at) / Fold change (Aza/veh), FGFR1OP (ProbeSet 11751329_s_at) / Fold change (ACY-1035/veh), FGFR1OP (ProbeSet 11751329_s_at) / Fold change (Aza/veh), VPS36 (ProbeSet 11739960_a_at) / Fold change (ACY-1035/veh), VPS36 (ProbeSet 11739960_a_at) / RFU SYPL1 (11715823_x_at) / Fold change /veh SYPL1 (11715823_x_at) / RFU IGFBP7 (11715501_s_at) / Fold change /veh IGFBP7 (11715501_s_at) / RFU REEP3 (11722064_at) / Fold change /veh REEP3 (11722064_at) / RFU IGLL1 (11728026_x_at) / Fold change /veh IGLL1 (11728026_x_at): dose or concentration left out as unconfirmed
Settings: MV-4-11 cells, 48 hours

Compound: Nc1ccc(-c2cccs2)cc1NC(=O)c1ccc2c(c1)cc(C1CC1)n2CCN1CCOCC1 [ACY-1035]
- RFU KRT8 (11758183_x_at): 18.67 RFU
